Test results reported in US10221163B2 (priority 2015, dated 2019).
Like-named read-outs stand apart in the source and are kept apart here.

Columns and labels:
[1] = tested on: Pseudomonas aeruginosa MB9798 vs MB9799; details: ratio MITC95 PA_9798/MITC95 PA_9799
Outline: (§1)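 Microbroth MIC tests in PAO1-background strains with fixed imipenem and/or ceftazidime, usually at the CLSI breakpoint, plus fixed class A/C β-lactamase inhibitor against AmpC. MBL inhibitor titrated; concentration restoring susceptibility recorded and compared as fold difference between efflux+ MB9798 and efflux− MB9799.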

[2] = tested on: Serratia marcescens expressing IMP-1 (CL5741); assay type: cell-based; details: IMP-1 strain CL5741, with imipenem 1 μg/ml, 95% inhibition of growth
Outline: (§2)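 Colonies grown overnight on blood agar at 35° C were suspended in saline, diluted 1:100 into 1.1×CAMHB and dispensed. Imipenem was added to 1 μg/ml, then test compound. After 22 hours to 24 hours at 35° C, absorbance was recorded.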

[3] = tested on: Escherichia coli expressing NDM-1 (CLB30005, CLB30016); assay type: cell-based; details: NDM-1 strain, with imipenem 1 μg/ml, 95% inhibition of growth
Outline: as §2

[4] = tested on: Klebsiella pneumoniae expressing VIM-1 (IHMA599644); assay type: cell-based; details: VIM-1 strain IHMA599644, with imipenem 1 μg/ml, 95% inhibition of growth
Outline: as §2

[5] = tested on: Pseudomonas aeruginosa efflux− (MB9799), IMP-1; assay type: cell-based; details: concentration restoring susceptibility to imipenem at 2 μg/mL in the presence of a class A, C, D serine β-lactamase inhibitor closely related to relebactam
Outline: as §1

[6] = tested on: Pseudomonas aeruginosa efflux+ (MB9798), IMP-1; assay type: cell-based; details: concentration restoring susceptibility to imipenem at 2 μg/mL in the presence of a class A, C, D serine β-lactamase inhibitor closely related to relebactam
Outline: as §1

VIM-1 = VIM-1 (Pseudomonas aeruginosa (strain ATCC 15692 / DSM 22644 / CIP 104116 / JCM 14847 / LMG 12228 / 1C / PRS 101 / PAO1), UniProt A0A0F7KYQ8); experiment: biochemical; details: CCF2-FA substrate, 30 pM enzyme, 2 hours at 25° C.
Outline: (§3)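 IC50 values derive from 4-parameter fits of percent inhibition against inhibitor concentration on semi-log axes. Activity was monitored by fluorescence with the CCF2-FA substrate after a 2-hour, 25° C incubation of compound, enzyme and substrate.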

IMP-1 = IMP-1 (Serratia marcescens, UniProt P52699); experiment: biochemical; assay type: biochemical; details: fluorescence assay, CCF2-FA substrate, 2 pM enzyme, 2 hours at 25° C.; read-out: IMP-1 IC50
Chain of IMP-1 (P52699 whole entry, looked up, species assumed): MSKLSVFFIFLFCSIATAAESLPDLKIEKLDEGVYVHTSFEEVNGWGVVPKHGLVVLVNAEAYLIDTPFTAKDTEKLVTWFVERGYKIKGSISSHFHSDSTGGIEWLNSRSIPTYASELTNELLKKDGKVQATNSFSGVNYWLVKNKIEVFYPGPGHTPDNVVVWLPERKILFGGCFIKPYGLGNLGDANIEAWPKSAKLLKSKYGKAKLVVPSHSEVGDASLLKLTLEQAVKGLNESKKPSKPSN
Outline: as §3

NDM-1 = NDM-1 (Klebsiella pneumoniae, UniProt C7C422); experiment: biochemical; assay type: biochemical; details: fluorescence assay, CCF2-FA substrate, 1 pM enzyme, 2 hours at 25° C.; read-out: NDM-1 IC50
Chain of NDM-1 (C7C422 whole entry, looked up, species assumed): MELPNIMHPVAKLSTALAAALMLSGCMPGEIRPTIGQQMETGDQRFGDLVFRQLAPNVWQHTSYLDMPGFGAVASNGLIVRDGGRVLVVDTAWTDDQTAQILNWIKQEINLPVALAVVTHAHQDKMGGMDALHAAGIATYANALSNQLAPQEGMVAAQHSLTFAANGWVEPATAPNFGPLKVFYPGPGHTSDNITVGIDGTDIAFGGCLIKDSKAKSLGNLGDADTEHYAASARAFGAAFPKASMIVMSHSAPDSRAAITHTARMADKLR
Outline: as §3

[7] = fluorescence assay, read-out: VIM-1 IC50

Row | SMILES | Efflux ratio [1] | Serratia marcescens MITC95 [2] | Escherichia coli MITC95 [3] | Klebsiella pneumoniae MITC95 [4] | P. aeruginosa expressing IMP-1, efflux − (MB9799) MITC95 [5] | P. aeruginosa expressing IMP-1, efflux + (MB9798) MITC95 [6] | IC50 (VIM-1; VIM-1 IC50, fluorescence assay) | IC50 (IMP-1) | IC50 (NDM-1) | IC50 (VIM-1; [7])
1 | NC[C@H](N)CNS(=O)(=O)c1ccc(-c2cccc3[nH]c(N)nc23)c(-c2nn[nH]n2)c1S(N)(=O)=O [Example 370, (S)-4-(2-amino-1H-benzo[d]imidazol-4-yl)-N1-(2,3-diaminopropyl)-3-(2H-tetrazol-5-yl)benzene-1,2-disulfonamide] | 1.00 | 1.172 µM | 0.3906 µM | 1.563 µM | 0.7813 µM | 0.7813 µM | 209 pM | 663 pM | 45.9 pM | –
2 | NC[C@H](N)CNS(=O)(=O)c1ccc(-c2cccc3ccc(N)nc23)c(-c2nn[nH]n2)c1S(N)(=O)=O [Example 371, (S)-4-(2-aminoquinolin-8-yl)-N1-(2,3-diaminopropyl)-3-(2H-tetrazol-5-yl)benzene-1,2-disulfonamide] | 1.00 | 3.125 µM | 0.7813 µM | 3.125 µM | 1.563 µM | 1.563 µM | 188 pM | 289 pM | 80.7 pM | –
3 | NC[C@H](N)CNS(=O)(=O)c1ccc(-c2cnc(N)s2)c(-c2nn[nH]n2)c1S(N)(=O)=O [Example 372, (S)-4-(2-aminothiazol-5-yl)-N1-(2,3-diaminopropyl)-3-(2H-tetrazol-5-yl)benzene-1,2-disulfonamide] | 2.00 | 1.563 µM | 1.563 µM | 3.125 µM | 0.7813 µM | 1.563 µM | – | 1280 pM | 574 pM | 914 pM
4 | NC[C@H](N)CNS(=O)(=O)c1ccc(-c2cnc3cc[nH]c3c2)c(-c2nn[nH]n2)c1S(N)(=O)=O [Example 373, (S)-N1-(2,3-diaminopropyl)-4-(1H-pyrrolo[3,2-b]pyridin-6-yl)-3-(2H-tetrazol-5-yl)benzene-1,2-disulfonamide] | 1.00 | 1.563 µM | 0.3906 µM | 3.125 µM | 1.563 µM | 1.563 µM | 121 pM | 495 pM | 51.6 pM | –
5 | NC[C@@H](N)CNS(=O)(=O)c1ccc(-c2cccc3[nH]c(N)nc23)c(-c2nn[nH]n2)c1S(N)(=O)=O [Example 375, (R)-4-(2-amino-1H-benzo[d]imidazol-4-yl)-N1-(2,3-diaminopropyl)-3-(2H-tetrazol-5-yl)benzene-1,2-disulfonamide] | 1.00 | 1.563 µM | 0.3906 µM | 1.563 µM | 1.563 µM | 1.563 µM | 233 pM | 600 pM | 58.8 pM | –
6 | NC[C@@H](N)CNS(=O)(=O)c1ccc(-c2cccc3ccc(N)nc23)c(-c2nn[nH]n2)c1S(N)(=O)=O [Example 376, (R)-4-(2-aminoquinolin-8-yl)-N1-(2,3-diaminopropyl)-3-(2H-tetrazol-5-yl)benzene-1,2-disulfonamide] | 1.00 | 3.125 µM | 0.7813 µM | 3.125 µM | 1.563 µM | 1.563 µM | 274 pM | 272 pM | 55.1 pM | –
7 | NC[C@@H](N)CNS(=O)(=O)c1ccc(-c2cnc(N)s2)c(-c2nn[nH]n2)c1S(N)(=O)=O [Example 377, (R)-4-(2-aminothiazol-5-yl)-N1-(2,3-diaminopropyl)-3-(2H-tetrazol-5-yl)benzene-1,2-disulfonamide] | 2.00 | 1.563 µM | 0.7813 µM | 3.125 µM | 0.7813 µM | 1.563 µM | – | 1180 pM | 573 pM | 885 pM
8 | NC[C@@H](N)CNS(=O)(=O)c1ccc(-c2cnc3cc[nH]c3c2)c(-c2nn[nH]n2)c1S(N)(=O)=O [Example 378, (R)-N1-(2,3-diaminopropyl)-4-(1H-pyrrolo[3,2-b]pyridin-6-yl)-3-(2H-tetrazol-5-yl)benzene-1,2-disulfonamide] | 2.00 | 1.563 µM | 0.7813 µM | 3.125 µM | 1.563 µM | 3.125 µM | 98.5 pM | 354 pM | 51.1 pM | –
9 | NCc1nc2c(-c3ccc(S(=O)(=O)N[C@@H](CN)CO)c(S(N)(=O)=O)c3-c3nn[nH]n3)cccc2[nH]1 [Example 379, (S)—N^1-(1-amino-3-hydroxypropan-2-yl)-4-(2-(aminomethyl)-1H-benzo[d]imidazol-4-yl)-3-(2H-tetrazol-5-yl)benzene-1,2-disulfonamide] | 2.00 | 1.563 µM | 1.563 µM | 1.563 µM | 0.7813 µM | 1.563 µM | 135 pM | 626 pM | 95.6 pM | –
10 | NC[C@@H](CO)NS(=O)(=O)c1ccc(-c2ccnc(N)c2)c(-c2nn[nH]n2)c1S(N)(=O)=O [Example 380, (S)—N1-(1-amino-3-hydroxypropan-2-yl)-4-(2-aminopyridin-4-yl)-3-(2H -tetrazol-5-yl)benzene-1,2-disulfonamide] | 1.00 | 0.7813 µM | 0.4883 µM | 1.563 µM | 0.7813 µM | 0.7813 µM | 179 pM | 544 pM | 178 pM | –
11 | NCc1nc2c(-c3ccc(S(=O)(=O)N[C@@H](CN)CO)c(S(N)(=O)=O)c3-c3nn[nH]n3)cccc2s1 [Example 381, (S)—N1-(1-amino-3-hydroxypropan-2-yl)-4-(2-(aminomethyl)benzo[d]thiazol-4-yl)-3-(2H-tetrazol-5-yl)benzene-1,2-disulfonamide] | 1.50 | 1.172 µM | 0.7813 µM | 2.344 µM | 0.7813 µM | 1.172 µM | 117 pM | 241 pM | 60.2 pM | –
12 | NC[C@@H](CO)NS(=O)(=O)c1ccc(-c2cccc(N)n2)c(-c2nn[nH]n2)c1S(N)(=O)=O [Example 382, (S)—N1-(1-amino-3-hydroxypropan-2-yl)-4-(6-aminopyridin-2-yl)-3-(2H-tetrazol-5-yl)benzene-1,2-disulfonamide] | 1.00 | 1.563 µM | 1.563 µM | 3.125 µM | 1.563 µM | 1.563 µM | – | 651 pM | 220 pM | 271 pM
13 | C[C@H](CN)NS(=O)(=O)c1ccc(-c2cccc3[nH]c(CN)nc23)c(-c2nn[nH]n2)c1S(N)(=O)=O [Example 383, (R)-4-(2-(aminomethyl)-1H-benzo[d]imidazol-4-yl)-N1-(1-aminopropan-2-yl)-3-(2H-tetrazol-5-yl)benzene-1,2-disulfonamide] | 1.00 | 1.563 µM | 0.7813 µM | 1.563 µM | 0.7813 µM | 0.7813 µM | – | 536 pM | 56.8 pM | 102 pM
